Test results: the NIST ThermoML archive (doi:10.1016/j.tca.2007.02.022)
Values joined by “and” are separate entries in the source; they are usually repeats but may differ in a detail not shown here. Equal entries are not always repeated. Numbers after ± are expanded uncertainties.

What was measured:
[1] = molar heat capacity at constant pressure; settings: 101.33 kPa
[2] = Molar enthalpy of transition or fusion; settings: Crystal

With OC[C@@H](O)[C@H](O)[C@@H](O)CO [xylitol] the “molar heat capacity at constant pressure” value ([1]; 225 K, Crystal) was 169.6 ± 3.7 J/K/mol, the “molar heat capacity at constant pressure” value ([1]; 227.46 K, Crystal) was 168.2 ± 3.7 J/K/mol and the “molar heat capacity at constant pressure” value ([1]; 230 K, Crystal) was 173.4 ± 3.7 J/K/mol. The “molar heat capacity at constant pressure” value ([1]; 230.62 K, Crystal) was 170.6 ± 3.7 J/K/mol, the “molar heat capacity at constant pressure” value ([1]; 233.78 K, Crystal) was 172.5 ± 3.7 J/K/mol and the “molar heat capacity at constant pressure” value ([1]; 235 K, Crystal) was 177.1 ± 3.8 J/K/mol. The “molar heat capacity at constant pressure” value ([1]; 236.94 K, Crystal) was 174 ± 3.7 J/K/mol, the “molar heat capacity at constant pressure” value ([1]; 240 K, Crystal) was 180.8 ± 3.8 J/K/mol and the “molar heat capacity at constant pressure” value ([1]; 240.13 K, Crystal) was 176.1 ± 3.8 J/K/mol. The “molar heat capacity at constant pressure” value ([1]; 243.21 K, Crystal) was 178.2 ± 3.8 J/K/mol, the “molar heat capacity at constant pressure” value ([1]; 245 K, Crystal) was 184.4 ± 3.8 J/K/mol and the “molar heat capacity at constant pressure” value ([1]; 246.34 K, Crystal) was 180.8 ± 3.8 J/K/mol. For the same molecule, the “molar heat capacity at constant pressure” value ([1]; 249.48 K, Crystal) was 182.2 ± 3.8 J/K/mol, the “molar heat capacity at constant pressure” value ([1]; 250 K, Crystal) was 188 ± 3.9 J/K/mol and the “molar heat capacity at constant pressure” value ([1]; 252.61 K, Crystal) was 184.3 ± 3.8 J/K/mol. The “molar heat capacity at constant pressure” value ([1]; 255 K, Crystal) was 191.5 ± 3.9 J/K/mol, the “molar heat capacity at constant pressure” value ([1]; 255.78 K, Crystal) was 186.3 ± 3.9 J/K/mol and the “molar heat capacity at constant pressure” value ([1]; 258.93 K, Crystal) was 188.6 ± 3.9 J/K/mol. For the same molecule, the “molar heat capacity at constant pressure” value ([1]; 260 K, Crystal) was 195 ± 4 J/K/mol, the “molar heat capacity at constant pressure” value ([1]; 262.07 K, Crystal) was 191 ± 3.9 J/K/mol and the “molar heat capacity at constant pressure” value ([1]; 265 K, Crystal) was 198.3 ± 4 J/K/mol. For the same molecule, the “molar heat capacity at constant pressure” value ([1]; 265.19 K, Crystal) was 193.2 ± 3.9 J/K/mol, the “molar heat capacity at constant pressure” value ([1]; 268.29 K, Crystal) was 195.2 ± 4 J/K/mol and the “molar heat capacity at constant pressure” value ([1]; 270 K, Crystal) was 201.6 ± 4 J/K/mol. For the same molecule, the “molar heat capacity at constant pressure” value ([1]; 271.44 K, Crystal) was 197.5 ± 4 J/K/mol, the “molar heat capacity at constant pressure” value ([1]; 274.65 K, Crystal) was 199.6 ± 4 J/K/mol and the “molar heat capacity at constant pressure” value ([1]; 275 K, Crystal) was 204.8 ± 4 J/K/mol. The “molar heat capacity at constant pressure” value ([1]; 277.84 K, Crystal) was 201.9 ± 4 J/K/mol, the “molar heat capacity at constant pressure” value ([1]; 280 K, Crystal) was 208 ± 4.1 J/K/mol and the “molar heat capacity at constant pressure” value ([1]; 281.02 K, Crystal) was 204.7 ± 4 J/K/mol. For the same molecule, the “molar heat capacity at constant pressure” value ([1]; 284.19 K, Crystal) was 207.3 ± 4.1 J/K/mol, the “molar heat capacity at constant pressure” value ([1]; 285 K, Crystal) was 211.1 ± 4.1 J/K/mol and the “molar heat capacity at constant pressure” value ([1]; 287.39 K, Crystal) was 210.2 ± 4.1 J/K/mol. For the same molecule, the “molar heat capacity at constant pressure” value ([1]; 290 K, Crystal) was 214.2 ± 4.1 J/K/mol, the “molar heat capacity at constant pressure” value ([1]; 290.63 K, Crystal) was 212.7 ± 4.1 J/K/mol and the “molar heat capacity at constant pressure” value ([1]; 293.83 K, Crystal) was 215.1 ± 4.2 J/K/mol. For the same molecule, the “molar heat capacity at constant pressure” value ([1]; 295 K, Crystal) was 217.4 ± 4.2 J/K/mol, the “molar heat capacity at constant pressure” value ([1]; 297.06 K, Crystal) was 217.8 ± 4.2 J/K/mol and the “molar heat capacity at constant pressure” value ([1]; 298.15 K, Crystal) was 219.4 ± 4.2 J/K/mol. For the same molecule, the “molar heat capacity at constant pressure” value ([1]; 300 K, Crystal) was 220.7 ± 4.2 J/K/mol, the “molar heat capacity at constant pressure” value ([1]; 300.4 K, Crystal) was 220.6 ± 4.2 J/K/mol and the “molar heat capacity at constant pressure” value ([1]; 303.7 K, Crystal) was 223.9 ± 4.2 J/K/mol. The “molar heat capacity at constant pressure” value ([1]; 305 K, Crystal) was 224.2 ± 4.2 J/K/mol, the “molar heat capacity at constant pressure” value ([1]; 310 K, Crystal) was 227.9 ± 4.3 J/K/mol and the “molar heat capacity at constant pressure” value ([1]; 310.42 K, Crystal) was 229.1 ± 4.3 J/K/mol. The “molar heat capacity at constant pressure” value ([1]; 314.19 K, Crystal) was 232.7 ± 4.3 J/K/mol, the “molar heat capacity at constant pressure” value ([1]; 315 K, Crystal) was 232.1 ± 4.3 J/K/mol and the “molar heat capacity at constant pressure” value ([1]; 318.33 K, Crystal) was 237.1 ± 4.4 J/K/mol. For the same molecule, the “molar heat capacity at constant pressure” value ([1]; 320 K, Crystal) was 236.9 ± 4.4 J/K/mol, the “molar heat capacity at constant pressure” value ([1]; 322.65 K, Crystal) was 240.3 ± 4.4 J/K/mol and the “molar heat capacity at constant pressure” value ([1]; 325 K, Crystal) was 242.4 ± 4.4 J/K/mol. For the same molecule, the “molar heat capacity at constant pressure” value ([1]; 326.89 K, Crystal) was 244.7 ± 4.4 J/K/mol, the “molar heat capacity at constant pressure” value ([1]; 330 K, Crystal) was 248.8 ± 4.5 J/K/mol and the “molar heat capacity at constant pressure” value ([1]; 331.21 K, Crystal) was 251.3 ± 4.5 J/K/mol. For the same molecule, the “molar heat capacity at constant pressure” value ([1]; 335 K, Crystal) was 256.3 ± 4.6 J/K/mol, the “molar heat capacity at constant pressure” value ([1]; 335.57 K, Crystal) was 258.1 ± 4.6 J/K/mol and the “molar heat capacity at constant pressure” value ([1]; 339.95 K, Crystal) was 261.8 ± 4.6 J/K/mol. The “molar heat capacity at constant pressure” value ([1]; 340 K, Crystal) was 265.3 ± 4.7 J/K/mol, the “molar heat capacity at constant pressure” value ([1]; 344.29 K, Crystal) was 261.9 ± 4.6 J/K/mol and the “molar heat capacity at constant pressure” value ([1]; 345 K, Crystal) was 275.9 ± 4.8 J/K/mol. The “molar heat capacity at constant pressure” value ([1]; 348.52 K, Crystal) was 262.4 ± 4.6 J/K/mol, the “molar heat capacity at constant pressure” value ([1]; 350 K, Crystal) was 288.6 ± 4.9 J/K/mol and the “molar heat capacity at constant pressure” value ([1]; 352.73 K, Crystal) was 271.3 ± 4.7 J/K/mol. For the same molecule, the “molar heat capacity at constant pressure” value ([1]; 355 K, Crystal) was 303.6 ± 5 J/K/mol, the “molar heat capacity at constant pressure” value ([1]; 356.88 K, Crystal) was 286.2 ± 4.9 J/K/mol and the “molar heat capacity at constant pressure” value ([1]; 360 K, Crystal) was 321.5 ± 5.2 J/K/mol. For the same molecule, the “molar heat capacity at constant pressure” value ([1]; 360.92 K, Crystal) was 323.9 ± 5.2 J/K/mol, the “molar heat capacity at constant pressure” value ([1]; 370 K, Liquid) was 420.6 ± 6.2 J/K/mol and the “molar heat capacity at constant pressure” value ([1]; 372.89 K, Liquid) was 422 ± 6.2 J/K/mol. For the same molecule, the “molar heat capacity at constant pressure” value ([1]; 375 K, Liquid) was 423.4 ± 6.2 J/K/mol, the “molar heat capacity at constant pressure” value ([1]; 376.72 K, Liquid) was 424.4 ± 6.2 J/K/mol and the “molar heat capacity at constant pressure” value ([1]; 380 K, Liquid) was 426.2 ± 6.3 J/K/mol. The “molar heat capacity at constant pressure” value ([1]; 380.91 K, Liquid) was 427 ± 6.3 J/K/mol, the “molar heat capacity at constant pressure” value ([1]; 385 K, Liquid) was 429 ± 6.3 J/K/mol and the “molar heat capacity at constant pressure” value ([1]; 385.11 K, Liquid) was 428.8 ± 6.3 J/K/mol. The “molar heat capacity at constant pressure” value ([1]; 390 K, Liquid) was 431.8 ± 6.3 J/K/mol and the “Molar enthalpy of transition or fusion” value [2] was 33.7 kJ/mol and 33.3 kJ/mol.
